{
  "source": "patent US20210308077A1",
  "about": "“COMBINATIONS INCLUDING BETA-ADRENORECEPTOR AGONISTS FOR TREATMENT OF PARKINSON`S DISEASE AND MOVEMENT DISORDERS” (The Brigham and Women`s Hospital, Inc., priority 2017, published 2021)",
  "key": {"[1]": {"system": "MPTP mouse model", "assay": "controlled trial in the MPTP mouse model", "format": "in vivo", "conditions": "MPTP 20 mg/kg i.p. five days; clenbuterol 10 mg/kg i.p. once then oral gavage daily for two weeks", "procedure": "Male C57bl/6 mice (8-10 weeks old) were analyzed. N-methyl-4-phenyl-1,2,3,6-tetrahydropyridine (MPTP-HCl; 20 mg/kg, measured as free base; Sigma, St. Louis, Mo.) was administered to mice intraperitoneally once per day for five consecutive days similar to described previously (26,36). Eight MPTP-treated mice assigned to the clenbuterol treatment group received one 10 mg/kg i.p. injection of clenbuterol (two days prior to MPTP treatment start) and then clenbuterol via oral gavage (10 mg/kg) daily for two weeks (starting on the day of the first MPTP treatment). Another eight MPTP-treated mice assigned to the vehicle treatment group received only oral drinking water (without clenbuterol). […]\nAfter overnight postfixation in 4% paraformaldehyde, brains were cryoprotected in 30% sucrose before cryosectioning into […] (used for stereology) free-floating sections, obtained as described previously (36). […] TH+ cells were analyzed by sterological estimates as described previously (36). Briefly, the total number of TH+neurons in the SNc was calculated by optical fractionation using Stereo Investigator (version 6; MicroBrightField, Williston, Vt.). […] Total number of TH+ neurons was determined using the optical fractionator. Adjacent tissue was also stained using cresyl violet (Sigma, 0.01% for 5 min) to confirm cell loss as assessed by TH analysis."}, "[2]": {"system": "NPCs carrying the SNCA triplication", "assay": "MitoSox assay of mitochondria-associated superoxide in SNCA-triplication NPCs exposed to rotenone", "format": "cell-based, human", "conditions": "20 μM rotenone, 20 μM clenbuterol", "procedure": "Patient-derived NPCs carrying the familial SNCA triplication were generated as described previously (28). NPCs were seeded at […] in 96-well plates (Greiner Cellcoat μClear) for HTS plate reader analysis (Polarstar Omega, BMG). For experiments with toxicants and inhibitors, NPCs were cultured under the following conditions for 18 hours unless specified differently in the experiment procedures: Standard NPC growth medium, growth medium plus 20 μM rotenone (Sigma).\nFor the Plate Reader HTS, each experiment was conducted with 6 replicates per cell line and treatment regimen. NPCs were treated with 20 μM clenbuterol for four days. Signals from individual wells were acquired with integration of fluorescence signals over 1 second duration by bottom read in orbital mode (8-spot measurements with 2 mm radius). […]\nFor the MitoSox assay for the detection of mitochondria-associated superoxide levels, adherent NPCs in 96-well plates were incubated with 2 μM MitoSOX™ (Ex./Em. 510/580 nm) and MitoTracker® Green (485/520 nm) (both Life Technologies) in high glucose without phenol red (Life Technologies), containing supplements without antioxidants (Life Technologies) for 15 min at 37° C. in the dark. […] Fluorescence was detected by sequential readings, and MitoSOX™ signals were normalized to mitochondrial content (Mitotracker®) and cell number (Hoechst)."}},
  "data": [
    {"smiles": "CC(C)(C)NCC(O)c1cc(Cl)c(N)c(Cl)c1", "note": "(stereo not drawn) [clenbuterol]", "values": [
      {"measurement": "TH+ neurons in the SNpc", "setting": "[1]", "value": "abrogated the MPTP-induced loss of TH+ neurons"},
      {"measurement": "cresyl-violet (CV) stained cells in the SNpc", "setting": "[1]", "value": "blocked the loss of cresyl-violet (CV) stained cells"},
      {"measurement": "mitochondria associated superoxide production", "setting": "[2]", "value": "ameliorated this increased mitochondria associated superoxide production"}
    ]}
  ]
}
